Legend:
H3K4me3 in MV4-11 cells = assay: MV4-11 H3K4me3 Cellular ELISA Assay; format: cell-based; conditions: Homo sapiens, MV4-11, 48 h
Method: MV4-11 H3K4me3 Cellular ELISA Assay
MV4-11 (ATCC® CRL-9591™) was cultured with RPMI1640 medium (Thermo Fisher Scientific, cat #11875) supplemented with 10% FBS (Thermo Fisher Scientific, cat #10099141) and 50 U/ml Penicillin-Streptomycin (Thermo Fisher Scientific, cat #10378016) in humidified incubator at 37° C., 5% CO2.
200 nL compounds dissolved in DMSO were serially diluted at 1:3 ratio for 12 points starting from 10 mM and dispensed into each wells of cell culture plates (PDL-coated ViewPlate-384 Black, FTC, PerkinElmer, #6007710). 3,750 MV4-11 cells in 40 μL culture medium were seeded into each well and treated with desired concentration for 48 hours. After treatment, wash cells with cold phosphate based buffer (PBS, pH 7.4) and aspirate the remaining PBS buffer. Crude histone lysate was extracted by 40 μL 0.5M HCl for 1 hour in 4° C. following neutralization by adding 32 μL neutralization buffer (0.5M Sodium phosphate dibasic, pH ˜12.5, 1.25 mM Dithiothreitol, Promega #V3151, Protease Inhibitor Cocktail, Sigma #8340) for each well. 5 μL and 20 μL of histone lysate was loaded to ELISA plate (384 Well Plates, PE HB, White, 6005620) for detection of total H3 and H3K4me3, respectively. Shake the plates gently in 4° C. for overnight. After histone binding, plates were washed with 80 μL PBS/T (PBS with 0.05% Tween-20) and blocked with 50 μL 3% BSA diluted in PBS/T per well for 1 hour. Incubate wells with primary antibody for 1 hour at room temperature using anti-H3K4me3 (CST #9727) and anti-total H3 (CST #9715) diluted 1:2000 in 3% BSA. Plates were then washed with PBS/T for 3 times and incubated with horseradish peroxidase (HRP) conjugated secondary antibody (CST #7074, 1:5000) for 1 hour at room temperature. The abundance of H3K4me3 and total H3 were measured by ECL substrates chemiluminescence (Pierce, #34080) on a plate reader (PerkinElmer EnVison 2104 Mutilable Reader). Percentage inhibition was calculated against DMSO control after normalization of H3K4me3 signal to H3 signal for individual samples. The data were then fit to a dose response curve using GraphPad Prism for IC50 calculation.

MV4-11 cells = assay: MV4-11 6-Day Cell Growth CTG (CellTiter-Glo) Assay; format: cell-based; conditions: Homo sapiens, MV4-11, 144 h, MV4-11 cell growth CellTiter-Glo, 6 days
Method: MV4-11 6-Day Cell Growth CTG (CellTiter-Glo) Assay
Acute myeloid leukemia cell MV4-11 (ATCC® CRL-9591™) was cultured with RPMI 1640 medium (Thermo Fisher Scientific, cat #11875) supplemented with 10% FBS (Thermo Fisher Scientific, cat #10099141) in humidified incubator at 37° C., 5% CO2. To assess the effect of MLL1 inhibition on cell growth, the compound of the present invention was dissolved in DMSO and serially diluted at 1:3 for 12 points starting from 10 mM then 200 nL for the replicate of each dose per well was dispensed to Viewplate-384 Black (Perkin Elmer). Exponentially growing MV4-11 cells were seeded at the density of 300 cells per well in 40 μL to the plate, so the final compound working concentration starts from 50 μM. After 6 days, 40 μL CellTiter-Glo (Promega, cat #G7573) was added into the cell culture well and luminescence was read with Envision (Perkin Elmer) to determine the viable cells. The percentage inhibition was calculated against the samples treated with DMSO only and the data were used for dose response curve fitting in GraphPad Prism to get the IC50 of representative compound of present invention, which reflects the inhibition of MLL1 activity.

[1] = molecular target: wild type MLL1 four-member complex (MLL1-4C) (Homo sapiens, UniProt Q03164); assay: MLL1 LC-MS Assay; format: biochemical; conditions: read-out: LCMS
Method: The compounds of the present disclosure were serially and separately diluted 3-fold in DMSO to obtain a total of eight or twelve concentrations. Then the test compounds at each concentration (120 nL of each) were transferred by Mosquito into white Proxiplate plus 384-well microplate (PerkinElmer). Solutions (6 μL) of 60 nM wild type MLL1 four-member complex (MLL1-4C) and 5 μM SAM in the reaction buffer (20 mM Tris-HCl, pH 8.0, 0.01% Tween 20, 1 mM DTT, 10 mM MgCl2, 0.01% BSA) were added to the wells that were then incubated with the test compound for 20 min. A 6 μL solution of 20 μM of the peptide substrate H3K4me0 (histone H3[1-21]-Biotin) in the reaction buffer was added to initiate each reaction. The final components in the reaction solution include 30 nM MLL1-4C, 2.5 μM SAM, and 10 μM H3K4me0 with varying concentration of the compounds. A positive control consisted of 30 nM MLL1-4C, 2.5 μM SAM, and 10 μM substrate in the absence of the test compound, and a negative control consisted of 2.5 μM SAM, and 10 μM substrate only. Each reaction was incubated at rt for 120 min, then stopped by addition of 3 μL per of quench solution (2.5% TFA with 320 nM d4-SAH). The reaction mixture was centrifuged (Eppendorf centrifuge 5810, Rotor A-4-62) for 2 min at 2000 rpm. The SAH production from the enzymatic assays were monitored by LC-MS/MS on an API 4000 triple quadrupole mass spec with Turbolon Spray (Applied Biosystem) coupled with Prominenece UFLC (Shimazu). The level of SAH production were then normalized based on the values coming from the positive and negative controls to give percent enzyme activities. The data were then fit to a dose response equation using the program Helios (Novartis) to get the IC50 values of the test compounds.

| Compound | IC50 (H3K4me3 in MV4-11 cells) [nM] | IC50 (MV4-11 cells) [nM] | IC50 [1] [nM] |
| --- | --- | --- | --- |
| Nc1ncnc2c1ncn2Cc1c([C@@H](O)C(F)(F)F)cc(Cl)cc1N1CC[C@](N)(C(=O)NC2CC2)C1 [Example 33, (R)-3-amino-1-(2-((6-amino-9H-purin-9-yl)methyl)-5-chloro-3-((R)-2,2,2-trifluoro-1-hydroxyethyl)phenyl)-N-cyclopropylpyrrolidine-3-carboxamide] | 1900 to 3000 | > 3000 | 50 to 100 |
| Nc1ncnc2c1ncn2Cc1c(N2CC[C@](N)(C(=O)NC3CC3)C2)ccc(C(F)(F)F)c1Br [Example 41, (R)-3-amino-1-(2-((6-amino-9H-purin-9-yl)methyl)-3-bromo-4-(trifluoromethyl)phenyl)-N-cyclopropylpyrrolidine-3-carboxamide] | < 1900 | < 2000 | < 50 |
| Nc1ncnc2c1ncn2Cc1c(N2CC[C@](N)(C(=O)NC3CC3)C2)ccc(F)c1CN1CCCCC1 [Example 46] | < 1900 | < 2000 | 50 to 100 |
| CN(C)Cc1c(C(F)(F)F)ccc(N2CC[C@](N)(C(=O)NC3CC3)C2)c1Cn1cnc2c(N)ncnc21 [Example 47] | < 1900 | < 2000 | < 50 |
| CN(Cc1c(F)ccc(N2CC[C@](N)(C(=O)NC3CC3)C2)c1Cn1cnc2c(N)ncnc21)C1CC1 [Example 48] | < 1900 | 2000 to 3000 | > 100 |
| CN(C)Cc1c(F)ccc(N2CC[C@](N)(C(=O)N[C@H]3C[C@@H]3c3ccccc3)C2)c1Cn1cnc2c(N)ncnc21 [Example 49] | < 1900 | < 2000 | < 50 |
| Nc1ncnc2c1ncn2Cc1c(N2CC[C@](N)(C(=O)NC3CC3)C2)ccc(F)c1CN1CC[C@@H](F)C1 [Example 50] | < 1900 | < 2000 | < 50 |
| Nc1ncnc2c1ncn2Cc1c(N2CC[C@](N)(C(=O)NC3CC3)C2)ccc(F)c1CN1CC(F)C1 [Example 53] | < 1900 | < 2000 | 50 to 100 |
| Nc1ncnc2c1ncn2Cc1c(N2CC[C@](N)(C(=O)NC3CC3)C2)ccc(F)c1CNC1CC1 [Example 54] | < 1900 | < 2000 | > 100 |
| Nc1ncnc2c1ncn2Cc1c(N2CC[C@](N)(C(=O)NC3CC3)C2)ccc(F)c1CN1CCC(F)(F)CC1 [Example 55] | < 1900 | < 2000 | 50 to 100 |
| Nc1ncnc2c1ncn2Cc1c(N2CC[C@](N)(C(=O)NC3CC3)C2)ccc(F)c1CN1CCC(F)CC1 [Example 56] | < 1900 | < 2000 | 50 to 100 |
| Nc1ncnc2c1ncn2Cc1c(N2CC[C@](N)(C(=O)NC3CC3)C2)ccc(F)c1CNCC(F)(F)F [Example 57] | < 1900 | < 2000 | 50 to 100 |
| Nc1ncnc2c1ncn2Cc1c(N2CC[C@](N)(C(=O)NC3CC3)C2)ccc(F)c1CN1C[C@H]2CC[C@@H](C1)O2 [Example 58] | < 1900 | < 2000 | 50 to 100 |
| CCN(Cc1c(F)ccc(N2CC[C@](N)(C(=O)NC3CC3)C2)c1Cn1cnc2c(N)ncnc21)C1CC1 [Example 59] | < 1900 | < 2000 | < 50 |
| CN(C)Cc1c(Cl)ccc(N2CC[C@](N)(C(=O)NC3CC3)C2)c1Cn1cnc2c(N)ncnc21 [Example 60] | < 1900 | < 2000 | 50 to 100 |
| Nc1ncnc2c1ncn2Cc1c(N2CC[C@](N)(C(=O)NC3CC3)C2)ccc(F)c1CN1CCCC1 [Example 61] | < 1900 | < 2000 | 50 to 100 |
| CC1(C)CCN(Cc2c(F)ccc(N3CC[C@](N)(C(=O)NC4CC4)C3)c2Cn2cnc3c(N)ncnc32)C1 [Example 63] | < 1900 | < 2000 | > 100 |
| CC1CN(Cc2c(F)ccc(N3CC[C@](N)(C(=O)NC4CC4)C3)c2Cn2cnc3c(N)ncnc32)C1 [Example 64] | < 1900 | < 2000 | 50 to 100 |
| Nc1ncnc2c1ncn2Cc1c(N2CC[C@](N)(C(=O)NC3CC3)C2)ccc(F)c1CN1CCC(F)(F)C1 [Example 66] | < 1900 | < 2000 | < 50 |
| CCN(CC)Cc1c(F)ccc(N2CC[C@](N)(C(=O)NC3CC3)C2)c1Cn1cnc2c(N)ncnc21 [Example 67] | < 1900 | < 2000 | 50 to 100 |
| Nc1ncnc2c1ncn2Cc1c(N2CC[C@](N)(C(=O)NC3CC3)C2)ccc(F)c1CN1CC[C@H](F)C1 [Example 68] | < 1900 | < 2000 | < 50 |
| Nc1ncnc2c1ncn2Cc1c(N2CC[C@](N)(C(=O)NC3CC3)C2)ccc(F)c1CN1CCCC(F)(F)C1 [Example 69] | < 1900 | < 2000 | 50 to 100 |
| CCc1c(Cl)cc(Cl)c(N2CC[C@](N)(C(=O)N3CCS(=O)(=O)CC3)C2)c1Cn1cnc2c(N)ncnc21 [Example 73] | < 1900 | < 2000 | > 100 |
| Nc1ncnc2c1ncn2Cc1c(N2CC[C@](N)(C(=O)NC3CC3)C2)ccc(F)c1CO [Example 76, (R)-3-amino-1-(2-((6-amino-9H-purin-9-yl)methyl)-4-fluoro-3-(hydroxymethyl)phenyl)-N-cyclopropylpyrrolidine-3-carboxamide] | < 1900 | 2000 to 3000 | 50 to 100 |
| COCc1c(F)ccc(N2CC[C@](N)(C(=O)NC3CC3)C2)c1Cn1cnc2c(N)ncnc21 [Example 77, (R)-3-amino-1-(2-((6-amino-9H-purin-9-yl)methyl)-4-fluoro-3-(methoxymethyl)phenyl)-N-cyclopropylpyrrolidine-3-carboxamide] | < 1900 | < 2000 | 50 to 100 |
| COCc1c(Cl)ccc(N2CC[C@](N)(C(=O)NC3CC3)C2)c1Cn1cnc2c(N)ncnc21 [Example 78] | < 1900 | < 2000 | < 50 |
| Nc1ncnc2c1ncn2Cc1c(N2CC[C@](N)(C(=O)NC3CC3)C2)ccc(Cl)c1COC1CCOC1 (stereo partly drawn) [Example 79] | < 1900 | < 2000 | 50 to 100 |
| [2H]C([2H])([2H])OCc1c(F)ccc(N2CC[C@](N)(C(=O)NC3CC3)C2)c1Cn1cnc2c(N)ncnc21 [Example 80] | < 1900 | < 2000 | 50 to 100 |
| [2H]C([2H])([2H])OCc1c(Cl)ccc(N2CC[C@](N)(C(=O)NC3CC3)C2)c1Cn1cnc2c(N)ncnc21 [Example 81] | < 1900 | < 2000 | < 50 |

— patent US20220380371A1, “MLL1 INHIBITORS AND ANTI-CANCER AGENTS” (NOVARTIS AG, priority 2019, published 2022)
